Experimental data taken from PubChem BioAssay (NCI).
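Interpolation was linear, between the two tested concentrations surrounding the appropriate level; five concentrations were tested over 48 hours in 96-well plates. The concentration for 50% growth inhibition is given as GI50. TGI: concentration producing complete growth inhibition.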

Experiments:
Test in all cases: inhibition of tumour cell growth, NCI panel, 48 h
[1] = system: HT29 colon
[2] = system: A498 renal
[3] = system: KM12 colon
[4] = system: HS 578T breast
[5] = system: SW-620 colon
[6] = system: A549 NSCLC
[7] = system: OVCAR-8 ovarian
[8] = system: MCF7 breast
[9] = system: RXF 393 renal
[10] = system: UACC-257 melanoma

## CCCc1nn(C)c2c(=O)[nH]c(-c3cc(S(=O)(=O)N4CCN(C)CC4)ccc3OCC)nc12
[1]
  GI50: > 100 µM
  TGI: > 100 µM
[2]
  GI50: 25.6 µM
  TGI: > 100 µM
[3]
  GI50: > 100 µM
  TGI: > 100 µM
[4]
  GI50: 21.6 µM
  TGI: > 100 µM
[5]
  GI50: > 100 µM
  TGI: > 100 µM
[6]
  GI50: > 100 µM
  TGI: > 100 µM
[7]
  GI50: > 100 µM
  TGI: > 100 µM
[8]
  GI50: > 100 µM
  TGI: > 100 µM
[9]
  GI50: > 100 µM
  TGI: > 100 µM
[10]
  GI50: > 100 µM
  TGI: > 100 µM

## Oc1ccccc1-c1nn(CNc2ccc(Cl)cc2)c(=S)o1
[1]
  GI50: 24.2 µM
  TGI: 88.1 µM
[2]
  GI50: > 100 µM
  TGI: > 100 µM
[3]
  GI50: 11.7 µM
  TGI: > 100 µM
[4]
  GI50: > 100 µM
  TGI: > 100 µM
[5]
  GI50: 22.4 µM
  TGI: > 100 µM
[6]
  GI50: 26.3 µM
  TGI: 99.2 µM
[7]
  GI50: 30.2 µM
  TGI: 89.9 µM
[8]
  GI50: 4.17 µM
  TGI: > 100 µM
[9]
  GI50: 19.9 µM
  TGI: 48.5 µM
[10]
  GI50: 20.6 µM
  TGI: 47.9 µM

## Cc1ccc2c(C(C[N+](=O)[O-])c3ccccc3)c(-c3ccccc3)[nH]c2c1 (stereo not given)
[1]
  GI50: 20.9 µM
  TGI: > 95 µM
[2]
  GI50: 24.9 µM
  TGI: > 95 µM
[3]
  GI50: 21.6 µM
  TGI: > 95 µM
[4]
  GI50: 16.8 µM
  TGI: 94.3 µM
[5]
  GI50: 16.6 µM
  TGI: > 95 µM
[6]
  GI50: 18 µM
  TGI: > 95 µM
[7]
  GI50: 33 µM
  TGI: > 95 µM
[8]
  GI50: 13.5 µM
  TGI: > 95 µM
[9]
  GI50: 10.5 µM
  TGI: 81.3 µM
[10]
  GI50: 29.3 µM
  TGI: > 95 µM

## COc1cc2nc(Nc3cccc(Cl)c3)nc(N)c2cc1OC
[1]
  GI50: 3.23 µM
  TGI: 12.4 µM
[2]
  GI50: 6.57 µM
  TGI: 20.1 µM
[3]
  GI50: 4.07 µM
  TGI: 15.7 µM
[4]
  GI50: 6.05 µM
  TGI: 31.6 µM
[5]
  GI50: 2.68 µM
  TGI: 7.15 µM
[6]
  GI50: 9.89 µM
  TGI: 27.3 µM
[7]
  GI50: 6.29 µM
  TGI: 22.6 µM
[8]
  GI50: 4.32 µM
  TGI: 17.4 µM
[9]
  GI50: 16.9 µM
  TGI: 31.3 µM
[10]
  GI50: 2.11 µM
  TGI: 4.48 µM

## OC1CC2CCC(C1)N2CCCN1c2ccccc2Sc2ccc(Cl)cc21 (stereo not given)
[1]
  TGI: 3.63 µM
[2]
  TGI: 5.62 µM
[3]
  TGI: 4.08 µM
[4]
  TGI: 4.59 µM
[5]
  TGI: 5.77 µM
[6]
  TGI: 7.45 µM
[7]
  TGI: 4.86 µM
[8]
  TGI: 3.3 µM
[9]
  TGI: 4.04 µM
[10]
  TGI: 2.6 µM

## CC1SC(c2ccccc2Cl)N(NC(=O)C(O)c2ccccc2)C1=O (stereo not given)
[1]
  GI50: > 100 µM
  TGI: > 100 µM
[2]
  GI50: 67.8 µM
  TGI: > 100 µM
[3]
  GI50: > 100 µM
  TGI: > 100 µM
[4]
  GI50: 85.3 µM
  TGI: > 100 µM
[5]
  GI50: > 100 µM
  TGI: > 100 µM
[6]
  GI50: 52.3 µM
  TGI: > 100 µM
[7]
  GI50: > 100 µM
  TGI: > 100 µM
[8]
  GI50: 54.6 µM
  TGI: > 100 µM
[9]
  GI50: > 100 µM
  TGI: > 100 µM
[10]
  GI50: 49.5 µM
  TGI: > 100 µM

## COC[C@H](NC(=O)c1cnc(C)s1)C(=O)N[C@@H](COC)C(=O)N[C@@H](Cc1ccccc1)C(=O)[C@@]1(C)CO1
[1]
  GI50: 21.1 µM
  TGI: > 75.7 µM
[2]
  GI50: 45.3 µM
  TGI: > 100 µM
[3]
  GI50: 21.4 µM
  TGI: 56 µM
[4]
  GI50: 26.5 µM
  TGI: > 100 µM
[5]
  GI50: 21.2 µM
  TGI: > 100 µM
[6]
  GI50: 42.9 µM
  TGI: > 100 µM
[7]
  GI50: > 93.2 µM
  TGI: > 100 µM
[8]
  GI50: 11.1 µM
  TGI: > 100 µM
[9]
  GI50: 15.5 µM
  TGI: 33.9 µM
[10]
  GI50: 21.1 µM
  TGI: > 70.8 µM

## CCC(CC)n1cnc2c(-c3cnc(N)cn3)nc(N3CC4CCC(C3)O4)nc21
[1]
  GI50: 0.742 µM
  TGI: > 100 µM
[2]
  GI50: 0.0749 µM
  TGI: 0.466 µM
[3]
  GI50: 0.377 µM
  TGI: > 100 µM
[4]
  GI50: 0.209 µM
  TGI: 1.61 µM
[5]
  GI50: 0.76 µM
  TGI: > 100 µM
[6]
  GI50: 0.405 µM
  TGI: > 100 µM
[7]
  GI50: 0.769 µM
  TGI: > 100 µM
[8]
  GI50: 0.156 µM
  TGI: > 100 µM
[9]
  GI50: 0.153 µM
  TGI: 1.6 µM
[10]
  GI50: 0.289 µM
  TGI: 4.07 µM

## CCOC(=O)C(=Cc1ccc(C#N)cc1)C(=O)OCC
[1]
  GI50: 1.93 µM
  TGI: 3.77 µM
[2]
  GI50: 7.84 µM
  TGI: 20.1 µM
[3]
  GI50: 2.86 µM
  TGI: 8.8 µM
[4]
  GI50: 4.19 µM
  TGI: 37.9 µM
[5]
  GI50: 2.1 µM
  TGI: 4.72 µM
[6]
  GI50: 4.11 µM
  TGI: 14.5 µM
[7]
  GI50: 3.54 µM
  TGI: 11.4 µM
[8]
  GI50: 2.07 µM
  TGI: 7.61 µM
[9]
  GI50: 1.87 µM
  TGI: 3.36 µM
[10]
  GI50: 2.41 µM
  TGI: 5.63 µM

## NC(=S)N/N=C/c1ccc(OC(=O)COc2cc(Cl)c(Cl)cc2Cl)cn1
[1]
  GI50: 17.7 µM
  TGI: > 100 µM
[2]
  GI50: 14.2 µM
  TGI: > 100 µM
[3]
  GI50: 5.68 µM
  TGI: > 100 µM
[4]
  GI50: 51 µM
  TGI: > 100 µM
[5]
  GI50: 5.75 µM
  TGI: > 100 µM
[6]
  GI50: 24.4 µM
  TGI: > 100 µM
[7]
  GI50: 2.26 µM
  TGI: > 100 µM
[8]
  GI50: 2.09 µM
  TGI: > 100 µM
[9]
  GI50: 3.16 µM
  TGI: 21.4 µM
[10]
  GI50: 11 µM
  TGI: 51.5 µM

## CC1(C)N=C(N)N=C(N)N1c1ccc(CNC(=O)Nc2ccc(S(=O)(=O)F)c(Cl)c2)c(Cl)c1
[1]
  GI50: 0.195 µM
  TGI: > 67.3 µM
[2]
  GI50: 9.5 µM
  TGI: > 100 µM
[3]
  GI50: 0.589 µM
  TGI: > 100 µM
[4]
  GI50: 21.8 µM
  TGI: > 100 µM
[5]
  GI50: 0.122 µM
  TGI: > 100 µM
[6]
  GI50: 0.56 µM
  TGI: > 100 µM
[7]
  GI50: 2.08 µM
  TGI: > 100 µM
[8]
  GI50: 0.536 µM
  TGI: > 100 µM
[9]
  GI50: 0.525 µM
  TGI: > 100 µM
[10]
  GI50: 5.11 µM
  TGI: > 100 µM

## Cc1ccc(OP(=O)(Oc2ccc(C)cc2)N2C=Cc3ccccc3C2C#N)cc1 (stereo not given)
[1]
  TGI: > 100 µM
[2]
  TGI: > 100 µM
[3]
  TGI: > 100 µM
[4]
  TGI: > 100 µM
[5]
  TGI: > 100 µM
[6]
  TGI: > 100 µM
[7]
  TGI: > 100 µM
[8]
  TGI: > 100 µM
[9]
  TGI: > 100 µM
[10]
  TGI: > 100 µM

## O=C(O)c1cccc(S(=O)(=O)NCCO)c1
[1]
  TGI: > 100 µM
[2]
  TGI: > 100 µM
[3]
  TGI: > 100 µM
[4]
  TGI: > 100 µM
[5]
  TGI: > 100 µM
[6]
  TGI: > 100 µM
[7]
  TGI: > 100 µM
[8]
  TGI: > 100 µM
[9]
  TGI: > 100 µM
[10]
  TGI: > 100 µM
